Key:
Type in all cases: in vivo
[1] = tested on: Euschistus heros (Neotropical Brown Stink Bug); experiment: Euschistus heros (Neotropical Brown Stink Bug), soybean leaves; details: 120 h, application rate of 200 ppm, N2 nymphs on sprayed soybean leaves, 5 days after infestation, read-out: effect in at least one of the two categories (mortality or growth inhibition)
Description: Example B4: Euschistus heros (Neotropical Brown Stink Bug)
Soybean leaves on agar in 24-well microtiter plates were sprayed with aqueous test solutions prepared from 10′000 ppm DMSO stock solutions. After drying the leaves were infested with N2 nymphs. The samples were assessed for mortality and growth inhibition in comparison to untreated samples 5 days after infestation.

[2] = tested on: Myzus persicae (Green Peach Aphid); experiment: Myzus persicae (Green Peach Aphid): systemic activity, pea seedlings; details: 144 h, test rate of 24 ppm, systemic, roots of infested pea seedlings in test solution, 6 days, read-out: mortality
Description: Example B7: Myzus persicae (Green Peach Aphid). Systemic Activity
Roots of pea seedlings infested with an aphid population of mixed ages were placed directly into aqueous test solutions prepared from 10′000 DMSO stock solutions. The samples were assessed for mortality 6 days after placing seedlings into test solutions.

[3] = tested on: Frankliniella occidentalis (Western Flower Thrips); experiment: Frankliniella occidentalis (Western Flower Thrips): feeding/contact activity, sunflower leaf discs; details: foliar, 168 h, application rate of 200 ppm, mixed ages on sprayed sunflower leaf discs, 7 days after infestation
Description: Example B5: Frankliniella occidentalis (Western Flower Thrips): Feeding/Contact Activity
Sunflower leaf discs were placed on agar in 24-well microtiter plates and sprayed with aqueous test solutions prepared from […] stock solutions. After drying the leaf discs were infested with a Frankliniella population of mixed ages. The samples were assessed for mortality 7 days after infestation.

[4] = tested on: Bemisia tabaci (Cotton White Fly); experiment: Bemisia tabaci (Cotton White Fly): feeding/contact activity, cotton leaf discs; details: foliar, 144 h, application rate of 200 ppm, adult white flies on sprayed cotton leaf discs, 6 days after incubation, read-out: mortality
Description: Example B1: Bemisia tabaci (Cotton White Fly): Feeding/Contact Activity
Cotton leaf discs were placed on agar in 24-well microtiter plates and sprayed with aqueous test solutions prepared from 10′000 ppm DMSO stock solutions. After drying the leaf discs were infested with adult white flies. The samples were checked for mortality 6 days after incubation.

[5] = tested on: Chilo suppressalis (Striped Rice Stemborer); experiment: Chilo suppressalis (Striped Rice Stemborer), artificial diet; details: 144 h, application rate of 200 ppm, L2 larvae on treated artificial diet, 6 days after infestation, read-out: control (at least one of mortality, anti-feedant effect, growth inhibition)
Description: Example B2: Chilo suppressalis (Striped Rice Stemborer)
24-well microtiter plates with artificial diet were treated with aqueous test solutions prepared from 10′000 ppm DMSO stock solutions by pipetting. After drying, the plates were infested with L2 larvae (6-8 per well). The samples were assessed for mortality, anti-feeding effect, and growth inhibition in comparison to untreated samples 6 days after infestation. Control of Chilo suppressalis by a test sample is given when at least one of the categories mortality, anti-feedant effect, and growth inhibition is higher than the untreated sample.

[6] = tested on: Myzus persicae (Green Peach Aphid); experiment: Myzus persicae (Green Peach Aphid): feeding/contact activity, sunflower leaf discs; details: foliar, 144 h, application rate of 200 ppm, mixed ages on sprayed sunflower leaf discs, 6 days after infestation, read-out: mortality
Description: Example B6: Myzus persicae (Green Peach Aphid): Feeding/Contact Activity
(§1) Sunflower leaf discs were placed onto agar in a 24-well microtiter plate and sprayed with aqueous test solutions prepared from 10′000 ppm DMSO stock solutions. After drying, the leaf discs were infested with an aphid population of mixed ages. The samples were assessed for mortality 6 days after infestation.

Spodoptera littoralis = Spodoptera littoralis (Egyptian Cotton Leaf Worm), cotton leaf discs; details: foliar, 72 h, application rate of 200 ppm, L1 larvae on sprayed cotton leaf discs, 3 days after infestation, read-out: control (at least one of mortality, anti-feedant effect, growth inhibition)
Description: Example B10: Spodoptera littoralis (Eaytian Cotton Leaf Worm)
Cotton leaf discs were placed onto agar in 24-well microtiter plates and sprayed with aqueous test solutions prepared from 10′000 ppm DMSO stock solutions. After drying the leaf discs were infested with five L1 larvae. The samples were assessed for mortality, anti-feeding effect, and growth inhibition in comparison to untreated samples 3 days after infestation. Control of Spodoptera littoralis by a test sample is given when at least one of the categories mortality, anti-feedant effect, and growth inhibition is higher than the untreated sample.

[7] = tested on: Diabrotica balteata (Corn Root Worm); experiment: whole plant or invertebrate; details: 96 h, application rate of 200 ppm, L2 larvae on sprayed maize sprouts, 4 days after infestation, read-out: effect in at least one of the two categories (mortality or growth inhibition)
Description: Example B3: Diabrotica balteata (Corn Root Worm)
Maize sprouts placed onto an agar layer in 24-well microtiter plates were treated with aqueous test solutions prepared from 10′000 ppm DMSO stock solutions by spraying. After drying, the plates were infested with L2 larvae (6 to 10 per well). The samples were assessed for mortality and growth inhibition in comparison to untreated samples 4 days after infestation.

[8] = tested on: Myzus persicae (Green Peach Aphid); experiment: Myzus persicae (Green Peach Aphid): intrinsic activity, sucrose solution; details: 120 h, test rate of 12 ppm, intrinsic, mixed with sucrose solution under Parafilm, 5 days after infestation, read-out: mortality
Summary of the method: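 Compounds from 10′000 ppm DMSO stocks mixed with sucrose solution in wells sealed with Parafilm; aphid-infested pea seedlings placed on the Parafilm and the assembly inverted so aphids feed through the membrane. Mortality assessed 5 days after infestation.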

[9] = tested on: Myzus persicae (Green Peach Aphid); experiment: Myzus persicae (Green Peach Aphid): feeding/contact activity, eggplant leaf discs; details: foliar, 144 h, application rate of 200 ppm, mixed ages on sprayed eggplant leaf discs, 6 days after infestation, read-out: growth inhibition
Description: as §1, with “Example B12: Myzus persicae (Green Peach Aphid) Feeding/Contact Activity Eggplant” for “Sunflower”

C[C@@H](COc1cnc(Cl)c(C(=O)NC2(C#N)CC2)c1)NS(=O)(=O)C(F)(F)F [Compound P-2, 2-chloro-N-(1-cyanocyclopropyl)-5-[(2S)-2-(trifluoromethylsulfonylamino)propoxy]pyridine-3-carboxamide]
≥ 80%: percent effect (mortality or growth inhibition) at 200 ppm [1] | mortality at 24 ppm [2] | mortality at 200 ppm [3] | mortality at 200 ppm [4] | percent control (mortality, anti-feedant effect or growth inhibition) at 200 ppm [5] | mortality at 200 ppm [6] | percent control (mortality, anti-feedant effect or growth inhibition) at 200 ppm (Spodoptera littoralis) | percent effect (mortality or growth inhibition) at 200 ppm [7] | mortality at 12 ppm [8]

C[C@@H](COc1cc(C(=O)NC2(C#N)CC2)c(Cl)nn1)NS(=O)(=O)C(F)(F)F [Compound P89, 3-chloro-N-(1-cyanocyclopropyl)-6-[(2S)-2-(trifluoromethylsulfonylamino)propoxy]pyridazine-4-carboxamide]
≥ 80%: inhibition at 200 ppm [9]

Reference: patent US20260015325A1, “ALKOXY HETEROARYL- CARBOXAMIDE OR THIOAMIDE COMPOUNDS” (SYNGENTA CROP PROTECTION AG, priority 2022, published 2026)
